Where a SMILES comes first, the peptide text is derived from it. [ ]: non-standard residue; d: D form. Lys(Thioacetyl) = CC(=S)NCCCC[C@H](N)C(=O)O

Assay [1] deals with T1, NAD-dependent protein deacetylase sirtuin-1 (Homo sapiens, UniProt Q96EB6).
T1 sequence (Q96EB6 whole entry): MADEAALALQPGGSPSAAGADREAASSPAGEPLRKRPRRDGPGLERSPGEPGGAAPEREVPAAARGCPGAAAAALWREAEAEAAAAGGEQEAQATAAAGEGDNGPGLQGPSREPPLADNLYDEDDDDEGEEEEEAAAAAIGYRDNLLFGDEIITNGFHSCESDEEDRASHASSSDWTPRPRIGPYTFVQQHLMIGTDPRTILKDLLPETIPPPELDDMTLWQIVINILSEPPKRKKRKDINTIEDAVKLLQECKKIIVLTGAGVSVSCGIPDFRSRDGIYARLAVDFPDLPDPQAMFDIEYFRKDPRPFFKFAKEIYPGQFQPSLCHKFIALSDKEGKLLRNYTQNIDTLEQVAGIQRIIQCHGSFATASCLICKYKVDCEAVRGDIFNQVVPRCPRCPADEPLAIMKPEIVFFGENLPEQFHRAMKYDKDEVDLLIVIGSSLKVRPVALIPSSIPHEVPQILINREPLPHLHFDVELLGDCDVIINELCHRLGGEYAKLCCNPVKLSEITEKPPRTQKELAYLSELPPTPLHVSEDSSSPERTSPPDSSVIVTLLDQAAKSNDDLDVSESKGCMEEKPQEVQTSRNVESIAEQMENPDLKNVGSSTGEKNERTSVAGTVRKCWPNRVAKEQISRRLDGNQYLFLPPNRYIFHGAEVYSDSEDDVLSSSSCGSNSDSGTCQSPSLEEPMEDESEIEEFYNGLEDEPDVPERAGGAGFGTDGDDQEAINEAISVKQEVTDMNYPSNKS
Put plainly: Inhibition of recombinant SIRT1 preincubated for 5 mins before addition of substrate measured after 1 hr by fluorescence-based assay.

Assay [2] addresses T2, NAD-dependent protein deacetylase sirtuin-2 (Homo sapiens, UniProt Q8IXJ6).
T2 sequence (Q8IXJ6 whole entry): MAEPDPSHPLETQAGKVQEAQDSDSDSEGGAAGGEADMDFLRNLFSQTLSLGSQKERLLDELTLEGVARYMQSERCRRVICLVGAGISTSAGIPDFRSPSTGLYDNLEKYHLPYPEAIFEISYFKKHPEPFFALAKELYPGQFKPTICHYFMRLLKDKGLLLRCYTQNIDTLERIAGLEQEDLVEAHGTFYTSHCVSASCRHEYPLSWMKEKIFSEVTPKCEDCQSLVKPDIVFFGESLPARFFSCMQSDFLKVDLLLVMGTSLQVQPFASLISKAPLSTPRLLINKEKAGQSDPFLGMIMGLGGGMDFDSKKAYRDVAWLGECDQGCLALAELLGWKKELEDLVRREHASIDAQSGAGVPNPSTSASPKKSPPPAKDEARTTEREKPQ
Put plainly: Inhibition of recombinant SIRT2 preincubated for 5 mins before addition of substrate measured after 3 hrs by fluorescence-based assay.

The target in assay [3] is T2, NAD-dependent protein deacetylase sirtuin-2. Briefly: Inhibition of GST-tagged SIRT2 expressed in Escherichia coli after 60 mins by Dixon plot.
In assay [4] the target is T1, NAD-dependent protein deacetylase sirtuin-1. Briefly: Inhibition of GST-tagged SIRT1 expressed in Escherichia coli after 10 mins by Dixon plot.
Assay [5] addresses T3, NAD-dependent protein deacetylase sirtuin-2 (Homo sapiens) (UniProt Q8IXJ6).
T3 sequence (whole entry): T2 sequence (Q8IXJ6 whole entry)
Briefly: Inhibition of recombinant SIRT2 at 200 uM preincubated for 5 mins before addition of substrate measured after 3 hrs by fluorescence-based assay.

The target of assay [6] is T4, NAD-dependent protein deacetylase sirtuin-1 (Homo sapiens) (UniProt Q96EB6).
T4 sequence (whole entry): T1 sequence (Q96EB6 whole entry)
Briefly: Inhibition of recombinant SIRT1 at 200 uM preincubated for 5 mins before addition of substrate measured after 1 hr by fluorescence-based assay.

For `CC[C@H](C)[C@H](NC(=O)[C@@H](NC(=O)[C@H](CCCCNC(C)=S)NC(=O)[C@H](C)NC(=O)[C@@H](N)CO)[C@@H](C)O)C(=O)O` (H-SA[Lys(Thioacetyl)]TI-OH), the results for the IC50 in assay [1] and in assay [2] were 0.22 µM and 5.5 µM, respectively.
Taken in the same sequence, the figures for `CSCC[C@H](NC(=O)[C@H](CC(C)C)NC(=O)[C@H](CCCCNC(C)=S)NC(=O)[C@@H](N)CCCCN)C(=O)O` (H-K[Lys(Thioacetyl)]LM-OH) were 0.33 µM and 49.8 µM.
For the compound `CSCC[C@H](NC(=O)[C@H](CC(C)C)NC(=O)[C@H](CCCCNC(C)=S)NC(=O)[C@H](CCCCN)NC(=O)[C@@H](N)Cc1cnc[nH]1)C(=O)O` (H-HK[Lys(Thioacetyl)]LM-OH), the IC50 worked out at 10 µM in assay [3], 0.33 µM in assay [1], 10 µM in assay [4] and 6.4 µM in assay [2].
As for `CC[C@H](C)[C@H](NC(=O)[C@@H](NC(=O)[C@H](CCCCNC(C)=S)NC(=O)[C@H](CC(=O)O)NC(=O)[C@H](C)N)[C@@H](C)O)C(=O)O` (H-AD[Lys(Thioacetyl)]TI-OH), the IC50 in assay [1] is 3.2 µM; in assay [2] it was 37.4 µM.
Taken in the same sequence, the figures for `CSCC[C@H](NC(=O)[C@@H](NC(=O)[C@H](CCCCNC(C)=S)NC(=O)[C@H](CC(=O)O)NC(=O)[C@@H](N)CO)[C@@H](C)O)C(=O)O` (H-SD[Lys(Thioacetyl)]TM-OH) were 1.4 µM and 10.6 µM.
Taken in the same sequence, the figures for `CC(=S)NCCCC[C@H](NC(=O)[C@@H](N)CC(=O)O)C(=O)N[C@H](C(=O)O)[C@@H](C)O` were 12 µM and 175 µM.
For `CC[C@H](C)[C@H](NC(=O)[C@@H](NC(=O)[C@H](CCCCNC(C)=S)NC(=O)[C@H](CC(=O)O)NC(=O)[C@@H](N)Cc1cnc[nH]1)[C@@H](C)O)C(=O)O` (H-HD[Lys(Thioacetyl)]TI-OH), in that order: 4.3 µM and 31.1 µM.
On to `CC(=S)NCCCC[C@H](NC(=O)[C@H](CC(=O)O)NC(=O)[C@@H](N)CO)C(=O)N[C@H](C(=O)O)[C@@H](C)O` (H-SD[Lys(Thioacetyl)]T-OH), for which the IC50 in assay [1] turned out to be 11.1 µM; in assay [2], 44 µM.
For `CC[C@H](C)[C@H](NC(=O)[C@H](C)NC(=O)[C@H](CCCCNC(C)=S)NC(=O)[C@H](CC(=O)O)NC(=O)[C@@H](N)CO)C(=O)O` (H-SD[Lys(Thioacetyl)]AI-OH), the IC50 was 6.7 µM in assay [1] and 72.8 µM in assay [2].
As for `CC(=S)NCCCC[C@H](NC(=O)[C@H](CC(=O)O)NC(=O)[C@@H](N)CO)C(=O)O`, the inhibition in assay [5] came to 13.9%; in assay [6] it was 11.8%.
Consider `CC[C@H](C)[C@H](NC(=O)[C@@H](NC(=O)[C@H](CCCCNC(C)=S)NC(=O)[C@H](CCCCN)NC(=O)[C@@H](N)CO)[C@@H](C)O)C(=O)O` (H-SK[Lys(Thioacetyl)]TI-OH), for which the IC50 in assay [1] came to 0.18 µM; in assay [2] it was 6.9 µM.
With `CC[C@H](C)[C@H](NC(=O)[C@@H](NC(=O)[C@H](CCCCNC(C)=S)NC(=O)[C@@H](N)CC(=O)O)[C@@H](C)O)C(=O)O` (H-D[Lys(Thioacetyl)]TI-OH), the half-inhibitory concentration (IC50) is 4.5 µM in assay [1] and 83.4 µM in assay [2].
As to `CSCC[C@H](NC(=O)[C@H](CC(C)C)NC(=O)[C@H](CCCCNC(C)=S)NC(=O)[C@H](CC(=O)O)NC(=O)[C@@H](N)CO)C(=O)O` (H-SD[Lys(Thioacetyl)]LM-OH), the IC50 in assay [1] was 10.8 µM; in assay [2], 92.9 µM.
Taken in the same sequence, the figures for `CC(=S)NCCCC[C@H](NC(=O)[C@H](CCCCN)NC(=O)[C@@H](N)Cc1cnc[nH]1)C(=O)N[C@@H](CC(C)C)C(=O)O` (H-HK[Lys(Thioacetyl)]L-OH) were 0.48 µM and 19.9 µM.
With `CC(=S)NCCCC[C@H](NC(=O)[C@H](CCCCN)NC(=O)[C@@H](N)Cc1cnc[nH]1)C(=O)N[C@@H](CC(C)C)C(=O)N[C@@H](C)C(=O)O` (H-HK[Lys(Thioacetyl)]LA-OH), the IC50 in assay [1] was determined as 0.9 µM; in assay [2] it was 33.3 µM.
`CSCC[C@H](NC(=O)[C@H](CC(C)C)NC(=O)[C@H](CCCCNC(C)=S)NC(=O)[C@H](CCCCN)NC(=O)[C@H](C)N)C(=O)O` (H-AK[Lys(Thioacetyl)]LM-OH): the values for the IC50 in assay [1] and in assay [2] were 0.38 µM and 8.5 µM, respectively.
In the case of `CSCC[C@H](NC(=O)[C@H](C)NC(=O)[C@H](CCCCNC(C)=S)NC(=O)[C@H](CCCCN)NC(=O)[C@@H](N)Cc1cnc[nH]1)C(=O)O` (H-HK[Lys(Thioacetyl)]AM-OH), the IC50 was determined as 0.18 µM in assay [1] and 3.8 µM in assay [2].
For `CSCC[C@H](NC(=O)[C@H](CC(C)C)NC(=O)[C@H](CCCCNC(C)=S)NC(=O)[C@H](C)NC(=O)[C@@H](N)Cc1cnc[nH]1)C(=O)O` (H-HA[Lys(Thioacetyl)]LM-OH), in that order: 0.55 µM and 16.5 µM.
Consider `CC[C@H](C)[C@H](NC(=O)[C@H](CC(C)C)NC(=O)[C@H](CCCCNC(C)=S)NC(=O)[C@H](CC(=O)O)NC(=O)[C@@H](N)CO)C(=O)O` (H-SD[Lys(Thioacetyl)]LI-OH), for which the figures for the IC50 in assay [1] and in assay [2] were 23.2 µM and 238 µM, respectively.
Take `CC[C@H](C)[C@H](NC(=O)[C@@H](NC(=O)[C@H](CCCCNC(C)=S)NC(=O)[C@H](CC(=O)O)NC(=O)[C@@H](N)CO)[C@@H](C)O)C(=O)O` (H-SD[Lys(Thioacetyl)]TI-OH): the IC50 in assay [1] was 5 µM; in assay [2], 29.1 µM.
With `CC(=S)NCCCC[C@H](NC(=O)[C@@H](N)CCCCN)C(=O)N[C@@H](CC(C)C)C(=O)O`, the IC50 in assay [1] turned out to be 0.57 µM; in assay [2] it was 151 µM.
With `CC[C@H](C)[C@H](NC(=O)[C@@H](NC(=O)[C@H](CCCCNC(C)=S)NC(=O)[C@H](CCCCN)NC(=O)[C@@H](N)Cc1cnc[nH]1)[C@@H](C)O)C(=O)O` (H-HK[Lys(Thioacetyl)]TI-OH), the IC50 in assay [1] was 0.23 µM; in assay [2], 7.6 µM.
For `CC(=S)NCCCC[C@H](NC(=O)[C@H](CC(=O)O)NC(=O)[C@@H](N)CO)C(=O)N[C@H](C(=O)N[C@@H](C)C(=O)O)[C@@H](C)O` (H-SD[Lys(Thioacetyl)]TA-OH), in that order: 8.8 µM and 84.6 µM.

These data come from ChEMBL document CHEMBL1153388, “N(epsilon)-thioacetyl-lysine-containing tri-, tetra-, and pentapeptides as SIRT1 and SIRT2 inhibitors” (J Med Chem, 2009).
